What is called IC50 is the midpoint of a concentration-inhibition curve. The viability, T/C is the result in the treated group divided by that in the control group, in per cent.

The subject of the test is PDC tumor spheroids with HUVEC/MSC, viability. The test can be described thus: Anticancer human tumor 439559-082-T-J2-PDC patient-derived colon adenocarcinoma cell line growth inhibition [TAK]. The following applies: for viability, T/C: stronger effect = lower value. The method in brief: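 Spheroids of 60% malignant cells, 25% HUVEC and 15% hMSC were exposed to targeted agents combined with TAK-243 or ipatasertib. Concentrations started at or near clinical Cmax (10 microM if unknown) and descended in half-log steps.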

Setting [1] is: curve of first compound, second compound 0.3 µM.
Where [2] appears, read: curve of first compound, second compound 0.949 µM.
The mark [3] stands for this setting: curve of first compound, second compound 3 µM.
The mark [4] stands for this setting: curve of first compound, second compound 9.49 µM.
Where [5] appears, read: curve of first compound, second compound 30 µM.
The mark [6] stands for this setting: second compound 0.3 µM, first compound 0.0316 µM.
Where [7] appears, read: second compound 0.3 µM, first compound 0.1 µM.
[8] abbreviates: second compound 0.949 µM, first compound 0.0316 µM.
[9] abbreviates: second compound 0.949 µM, first compound 0.1 µM.
The mark [10] stands for this setting: second compound 3 µM, first compound 0.0316 µM.
[11] abbreviates: second compound 3 µM, first compound 0.1 µM.
Setting [12] is: second compound 9.49 µM, first compound 0.0316 µM.
Setting [13] is: second compound 9.49 µM, first compound 0.1 µM.
[14] abbreviates: second compound 30 µM, first compound 0.0316 µM.
[15] abbreviates: second compound 30 µM, first compound 0.1 µM.

Where “and” joins values, the source holds several entries; their conditions need not be identical. Equal entries are not always repeated.
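Further: spheroids exposed to drugs for seven days before readout.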

On to `CC(C)n1nc(-c2ccc3oc(N)nc3c2)c2c(N)ncnc21` + CC(C)NCC(C(=O)N1CCN(c2ncnc3c2C(C)CC3O)CC1)c1ccc(Cl)cc1, for which the half-inhibitory concentration (IC50) is, setting by setting: under setting [1], above 0.1 µM; under setting [2], above 0.1 µM; under setting [3], above 0.1 µM; under setting [4], above 0.1 µM; under setting [5], above 0.1 µM. The viability, T/C runs as follows: (second compound 0.3 µM, first compound 0.000316 µM) 109%; (second compound 0.3 µM, first compound 0.001 µM) 98.8%; (second compound 0.3 µM, first compound 0.00316 µM) 96.5%; (second compound 0.3 µM, first compound 0.01 µM) 80.4%; under setting [6], 73.1%; under setting [7], 71.2%. For the same compound, the viability, T/C is 106% (second compound 0.949 µM, first compound 0.000316 µM); 101% (second compound 0.949 µM, first compound 0.001 µM); 83% (second compound 0.949 µM, first compound 0.00316 µM); 85% (second compound 0.949 µM, first compound 0.01 µM); 76% under setting [8]; 68% under setting [9]. Also, the viability, T/C is 101% (second compound 3 µM, first compound 0.000316 µM); 91.8% (second compound 3 µM, first compound 0.001 µM); 80.8% (second compound 3 µM, first compound 0.00316 µM); 82% (second compound 3 µM, first compound 0.01 µM); 73.7% under setting [10]; 71.8% under setting [11]. The viability, T/C (second compound 9.49 µM, first compound 0.000316 µM) is 89.5%; the viability, T/C (second compound 9.49 µM, first compound 0.001 µM) was 94.6%; the viability, T/C (second compound 9.49 µM, first compound 0.00316 µM) is 84.1%; the viability, T/C (second compound 9.49 µM, first compound 0.01 µM) is 78.7%; the viability, T/C under setting [12] is 69.9%; the viability, T/C under setting [13] is 66.8%. Also, the viability, T/C is 88.6% (second compound 30 µM, first compound 0.000316 µM); 91.1% (second compound 30 µM, first compound 0.001 µM); 87.8% (second compound 30 µM, first compound 0.00316 µM); 75% (second compound 30 µM, first compound 0.01 µM); 73.3% under setting [14]; 70.3% under setting [15].
For `CC(C)(C)c1nc(-c2cccc(NS(=O)(=O)c3c(F)cccc3F)c2F)c(-c2ccnc(N)n2)s1` + CC(C)NCC(C(=O)N1CCN(c2ncnc3c2C(C)CC3O)CC1)c1ccc(Cl)cc1, the IC50 runs as follows: under setting [1], above 10 µM; under setting [2], above 10 µM; under setting [3], above 10 µM; under setting [4], above 10 µM; under setting [5], above 10 µM. Further, the viability, T/C was 123% under setting [6]; 108% under setting [7]; 106% (second compound 0.3 µM, first compound 0.316 µM); 110% (second compound 0.3 µM, first compound 1 µM); 113% (second compound 0.3 µM, first compound 3.16 µM); 96.3% (second compound 0.3 µM, first compound 10 µM). The viability, T/C was 108% under setting [8]; 113% under setting [9]; 102% (second compound 0.949 µM, first compound 0.316 µM); 111% (second compound 0.949 µM, first compound 1 µM); 106% (second compound 0.949 µM, first compound 3.16 µM); 96.2% (second compound 0.949 µM, first compound 10 µM). The viability, T/C was 104% under setting [10]; 107% under setting [11]; 106% (second compound 3 µM, first compound 0.316 µM); 96.9% (second compound 3 µM, first compound 1 µM); 103% (second compound 3 µM, first compound 3.16 µM); 93.8% (second compound 3 µM, first compound 10 µM). Besides, the viability, T/C by setting is: under setting [12], 99.8%; under setting [13], 107%; (second compound 9.49 µM, first compound 0.316 µM) 102%; (second compound 9.49 µM, first compound 1 µM) 90.5%; (second compound 9.49 µM, first compound 3.16 µM) 96%; (second compound 9.49 µM, first compound 10 µM) 99.5%. Besides, the viability, T/C was 93.5% under setting [14]; 101% under setting [15]; 96.2% (second compound 30 µM, first compound 0.316 µM); 99.4% (second compound 30 µM, first compound 1 µM); 86.8% (second compound 30 µM, first compound 3.16 µM); 94% (second compound 30 µM, first compound 10 µM).
Turning to `Cn1cnc2c(F)c(Nc3ccc(Br)cc3Cl)c(C(=O)NOCCO)cc21` + CC(C)NCC(C(=O)N1CCN(c2ncnc3c2C(C)CC3O)CC1)c1ccc(Cl)cc1, the IC50 is, setting by setting: under setting [1], above 3 µM; under setting [2], above 3 µM; under setting [3], above 3 µM; under setting [4], above 3 µM; under setting [5], above 3 µM. Moreover, the viability, T/C runs as follows: (second compound 0.3 µM, first compound 0.00949 µM) 92.4%; (second compound 0.3 µM, first compound 0.03 µM) 82.1%; (second compound 0.3 µM, first compound 0.0949 µM) 80.9%; (second compound 0.3 µM, first compound 0.3 µM) 76.3%; (second compound 0.3 µM, first compound 0.949 µM) 68.9%; (second compound 0.3 µM, first compound 3 µM) 65.7%. Besides, the viability, T/C is, setting by setting: (second compound 0.949 µM, first compound 0.00949 µM) 104%; (second compound 0.949 µM, first compound 0.03 µM) 97.4%; (second compound 0.949 µM, first compound 0.0949 µM) 81%; (second compound 0.949 µM, first compound 0.3 µM) 77.2%; (second compound 0.949 µM, first compound 0.949 µM) 67.9%; (second compound 0.949 µM, first compound 3 µM) 69.4%. Moreover, the viability, T/C by setting is: (second compound 3 µM, first compound 0.00949 µM) 102%; (second compound 3 µM, first compound 0.03 µM) 99.8%; (second compound 3 µM, first compound 0.0949 µM) 80.2%; (second compound 3 µM, first compound 0.3 µM) 68.2%; (second compound 3 µM, first compound 0.949 µM) 72%; (second compound 3 µM, first compound 3 µM) 63.3%. Besides, the viability, T/C by setting is: (second compound 9.49 µM, first compound 0.00949 µM) 99.2%; (second compound 9.49 µM, first compound 0.03 µM) 91.7%; (second compound 9.49 µM, first compound 0.0949 µM) 83.9%; (second compound 9.49 µM, first compound 0.3 µM) 72%; (second compound 9.49 µM, first compound 0.949 µM) 70.5%; (second compound 9.49 µM, first compound 3 µM) 64.7%. Further, the viability, T/C (second compound 30 µM, first compound 0.00949 µM) is 93.6%; the viability, T/C (second compound 30 µM, first compound 0.03 µM) is 89.7%; the viability, T/C (second compound 30 µM, first compound 0.0949 µM) is 85.4%; the viability, T/C (second compound 30 µM, first compound 0.3 µM) is 75.2%; the viability, T/C (second compound 30 µM, first compound 0.949 µM) was 69.5%; the viability, T/C (second compound 30 µM, first compound 3 µM) was 66.3%.
Consider `CCCS(=O)(=O)Nc1ccc(F)c(C(=O)c2c[nH]c3ncc(-c4ccc(Cl)cc4)cc23)c1F`, for which the viability, T/C by setting is: (compound 0.316 µM) 114% and 106%; (compound 1 µM) 109% and 102%; (compound 3.16 µM) 97.3% and 102%; (compound 10 µM) 87.2% and 71.7%; (compound 31.6 µM) 103% and 94.9%; (compound 100 µM) 93.9% and 95.7%. For the same compound, for the setting “curve of compound”, the half-maximal inhibitory concentration (IC50) was above 100 µM.
Take `COc1c(OCCCN2CCOCC2)ccc2c3n(c(=NC(=O)c4cnc(N)nc4)nc12)CCN3`: the viability, T/C by setting is: (compound 0.00316 µM) 103% and 116%; (compound 0.01 µM) 91% and 95.7%; (compound 0.0316 µM) 82.8% and 82.9%; (compound 0.1 µM) 75.8% and 72.9%; (compound 0.316 µM) 68.9% and 70.3%; (compound 1 µM) 66% and 72.5%. Moreover, the half-inhibitory concentration (IC50) (curve of compound) is above 1 µM.

The values are drawn from PubChem BioAssay AID2060356 (Molecular Pharmacology Branch, DTP, NCI, 2025).
